Patent US9586986B2, “Substituted 7-deazapurine ribonucleosides for therapeutic uses” (Institute of Organic Chemistry and Biochemistry ASCR, v.v.i., priority 2014, dated 2017)

Key:
[1] = tested on: CCRF-CEM cells; test: Cell cycle and apoptosis analysis (flow cytometry, propidium iodide); assay type: cell-based, human; details: for G1, % of total cell populations / G2/M, % of total cell populations / S, % of total cell populations / sub-G1 (apoptosis), % of total cell populations: CCRF-CEM cells treated at IC50 for 24 hrs
Description: (§1) After the incubation period, cells were then washed with cold 1×PBS and fixed in 70% ethanol added dropwise and stored overnight at −20° C. Afterwards, cells were washed in hypotonic citrate buffer, treated with RNase (50 μg/mL) and stained with propidium iodide. Flow cytometry using a 488 nm single-beam laser (Becton Dickinson) was used for measurement. The data were analyzed according to the program ModFitLT (Verity), and apoptosis was expressed as the percentage of cells with a propidium content lower than that in the G0/G1 population. Half of the sample was used for pH3^ser10 antibody (Sigma) labeling and subsequent flow cytometry analysis of mitotic cells.
(§2) However, the major mechanism of action was inhibition of RNA synthesis (BrU incorporation). […] Cell cycle alterations (G1, S, G2/M) were not observed in treated cells under specified experimental conditions.

[2] = tested on: CCRF-CEM cells; test: Mitotic cells, pH3Ser10 antibody labeling (flow cytometry); assay type: cell-based, human; details: CCRF-CEM cells treated at IC50 for 24 hrs
Description: as §1, §2

[3] = tested on: HCT116p53-/-; test: Cytostatic/cytotoxic MTT assay, HCT116p53-/-; assay type: cell-based; details: Homo sapiens, HCT-116; 72 h incubation; read-out: MTT, IC50 HCT116 p53-/-
In short: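 Human cancer lines, including daunorubicin-resistant CEM-DNR (mrp-1/mdr-1 overexpressing) and paclitaxel-resistant K562-TAX (mdr-1), seeded 25,000-30,000 cells/well, pre-incubated 24 h, then treated in duplicate with four-fold dilutions for 72 h at 37° C, 5% CO2. MTT read-out at 540 nm; IC50 from dose-response curves.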

[4] = tested on: CCRF-CEM cells; test: BrdU incorporation analysis (DNA synthesis); assay type: cell-based, human; details: CCRF-CEM cells treated at IC50 for 24 hrs
Description: Cells were cultured as for cell cycle analysis. Before harvesting, they were pulse-labelled with 10 M 5-bromo-2′-deoxyuridine (BrdU) for 30 min. The cells were trypsinized, fixed with ice-cold 70% ethanol, incubated on ice for 30 min, washed with PBS, and resuspended in 2 M HCl for 30 min at room temperature to denature their DNA. Following neutralization with 0.1 M Na2B4O7, the cells were washed with PBS containing 0.5% Tween-20 and 1% BSA. They were then stained with primary anti-BrdU antibody (Exbio) for 30 min at room temperature in the dark. Cells were than washed with PBS and stained with secondary anti-mouse-FITC antibody (Sigma). The cells were then washed with PBS, incubated with propidium iodide (0.1 mg/mL) and RNAse A (0.5 mg/mL) for 1 h at room temperature in the dark, and finally analyzed by flow cytometry using a 488 nm single-beam laser (FACSCalibur, Becton Dickinson).
as §2

[5] = tested on: CCRF-CEM cells; test: BrU incorporation analysis (RNA synthesis); assay type: cell-based, human; details: CCRF-CEM cells treated at IC50 for 24 hrs
Description: Cells were cultured and treated as for cell cycle analysis. Before harvesting, they were pulse-labelled with 1 mM 5-bromouridine (BrU) for 30 min. The cells were fixed in 1% buffered paraformaldehyde with 0.05% of NP-40, incubated in room temperature for 15 min and than in the fridge overnight. They were then washed in 1% glycin in PBS, washed in PBS and stained with primary anti-BrdU antibody crossreacting to BrU (Exbio) for 30 min at room temperature in the dark. Cells were than washed with PBS and stained with secondary anti-mouse-FITC antibody (Sigma). Following the staining the cells are washed with PBS and fixed with 1% PBS buffered paraformaldehyde with 0.05% of NP-40. The cells were then washed with PBS, incubated with propidium iodide (0.1 mg/mL) and RNAse A (0.5 mg/mL) for 1 h at room temperature in the dark, and finally analyzed by flow cytometry using a 488 nm single-beam laser (FACSCalibur, Becton Dickinson).
as §2

| SMILES | melting point [°C] | G1, % of total cell populations [1] [%] | G2/M, % of total cell populations [1] [%] | S, % of total cell populations [1] [%] | sub-G1 (apoptosis), % of total cell populations [1] [%] | apoptosis induction in words ([1]; CCRF-CEM, IC50, 24 hours) | pH3Ser10+ (mitosis), % of total cell populations [2] [%] | IC50 [3] [nM] | BrdU+ (DNA synthesis), % of total cell populations [4] [%] | BrU+ (RNA synthesis), % of total cell populations [5] [%] |
| --- | --- | --- | --- | --- | --- | --- | --- | --- | --- | --- |
| COc1ncnc2c1c(-c1ccsc1)cn2[C@@H]1O[C@H](CO)[C@@H](O)[C@H]1O [Compound 1d, 4-Methoxy-7-(β-D-ribofuranosyl)-5-(thiophen-3-yl)-7H-pyrrolo[2,3-d]pyrimidine] | 169 to 171 | 40.8 | 12.7 | 46.5 | 75 | major apoptosis | 2.9 | 140 | 44.4 | 0.5 |
| COc1ncnc2c1c(-c1ccoc1)cn2[C@@H]1O[C@H](CO)[C@@H](O)[C@H]1O [Compound 1b, 5-(Furan-3-yl)-4-methoxy-7-(β-D-ribofuranosyl)-7H-pyrrolo[2,3-d]pyrimidine] | 190 to 192 | 43.5 | 12.3 | 44.2 | 8.5 |  | 1.6 | 130 | 44.2 | 0.7 |
| CN(C)c1ncnc2c1c(I)cn2[C@@H]1O[C@H](CO)[C@@H](O)[C@H]1O [Compound 4h, 4-Dimethylamino-5-iodo-7-(β-D-ribofuranosyl)-7H-pyrrolo[2,3-d]pyrimidine] | 195 to 197 | 39.8 | 13.5 | 46.7 | 9.4 |  | 1.3 | 120 | 48.7 | 4.8 |
